Results as given in publication PMC10364322, “Evaluation of chronic drug-induced electrophysiological and cytotoxic effects using human-induced pluripotent stem cell-derived cardiomyocytes (hiPSC-CMs)” (Frontiers in Pharmacology, 2023).

Assays:
[1] = system: hiPSC-CMs (iCell-Cardiomyocytes^2); test: MEA impedance (cytotoxicity readout) in hiPSC-CMs
[2] = free therapeutic Cmax in humans; ref FDA-approved drug packages, PharmaPendium; cited from earlier work

| Compound | Imp (impedance), % change from baseline ([1]; 0.3 µM, 2h) | Imp (impedance), % change from baseline ([1]; 0.3 µM, 24h) | Imp (impedance), % change from baseline ([1]; 0.3 µM, 48h) | Imp (impedance), % change from baseline ([1]; 0.3 µM, 72h) | Imp (impedance), % change from baseline ([1]; 0.3 µM, 96h) | Imp (impedance), % change from baseline ([1]; 1 µM, 2h) | Imp (impedance), % change from baseline ([1]; 1 µM, 24h) | Imp (impedance), % change from baseline ([1]; 1 µM, 48h) | Imp (impedance), % change from baseline ([1]; 1 µM, 72h) | Imp (impedance), % change from baseline ([1]; 1 µM, 96h) | Imp (impedance), % change from baseline ([1]; 3 µM, 72h) | Imp (impedance), % change from baseline ([1]; 3 µM, 96h) | Imp (impedance), % change from baseline ([1]; 3 µM, 2h) | Imp (impedance), % change from baseline ([1]; 3 µM, 24h) | Imp (impedance), % change from baseline ([1]; 3 µM, 48h) | Imp (impedance), % change from baseline ([1]; 10 µM, 2h) | Imp (impedance), % change from baseline ([1]; 10 µM, 24h) | Imp (impedance), % change from baseline ([1]; 10 µM, 48h) | Imp (impedance), % change from baseline ([1]; 10 µM, 72h) | Imp (impedance), % change from baseline ([1]; 10 µM, 96h) | further results |
| --- | --- | --- | --- | --- | --- | --- | --- | --- | --- | --- | --- | --- | --- | --- | --- | --- | --- | --- | --- | --- | --- |
| COc1nc(N)nc2c1ncn2[C@@H]1O[C@H](COP(=O)(N[C@@H](C)C(=O)OCC(C)(C)C)Oc2cccc3ccccc23)[C@@H](O)[C@@]1(C)O (some centres unmarked) [BMS-986094] | -4±2% | -3±2% | -6±3% | -8±3% | -18±6% | -1±2% | -1±4% | -5±3% | -16±2% | -29±4% | -19±6 % | -38±5 % | 3±5% | 1±2% | -5±3% | 2±1% | 4±4% | 2±10 % | -11±12% | -41±20 % | – |
| C[C@H](CS)C(=O)N1CCC[C@H]1C(=O)O [Captopril] | – | – | – | – | – | 7±5% | -7±1% | -9±4% | -2±3% | -4±5% | 1±4% | -1±4% | 9±3% | -6±3% | -7±4% | 9±3% | -5±3% | -10±5% | -1±5% | -4±5% | Imp (impedance), % change from baseline ([1]; 30 µM, 2h): 8±2%; Imp (impedance), % change from baseline ([1]; 30 µM, 24h): -4±3%; Imp (impedance), % change from baseline ([1]; 30 µM, 48h): -8±2%; Imp (impedance), % change from baseline ([1]; 30 µM, 72h): 1±5%; Imp (impedance), % change from baseline ([1]; 30 µM, 96h): -4±6%; effect on impedance ([1]; all concentrations tested, up to 96 h): did not have a significant effect on impedance; Free Cmax [2]: 2.3 µM |
| COc1cccc2c1C(=O)c1c(O)c3c(c(O)c1C2=O)C[C@@](O)(C(=O)CO)C[C@@H]3O[C@H]1C[C@H](N)[C@H](O)[C@H](C)O1 [Doxorubicin] | -1±1% | -23±6 % | -47±6 % | -70±7 % | -81±7 % | -1±2% | -56±4 % | -86±1 % | -89±2 % | -89±2 % | -87±0 % | -88±1 % | -2±0% | -56±5 % | -85±2 % | – | – | – | – | – | Imp (impedance), % change from baseline ([1]; 0.1 µM, 2h): 3±5%; Imp (impedance), % change from baseline ([1]; 0.1 µM, 24h): -8±5%; Imp (impedance), % change from baseline ([1]; 0.1 µM, 48h): -20±4%; Imp (impedance), % change from baseline ([1]; 0.1 µM, 72h): -27±4%; Imp (impedance), % change from baseline ([1]; 0.1 µM, 96h): -30±8%; decrease in the impedance signal ([1]; 0.3 µM, 72h): ~70%; Free Cmax [2]: 7.4 µM |
| C#Cc1cccc(Nc2ncnc3cc(OCCOC)c(OCCOC)cc23)c1 [Erlotinib] | 0±3% | -5±3% | -5±4% | -5±6% | -3±6% | 1±2% | -6±3% | -2±5% | -3±5% | 1±9% | -2±4% | 0±6% | 1±3% | -6±2% | -1±5% | 5±4% | -17±2 % | -13±3% | -13±3% | -10±2% | effect on impedance ([1]; 10 µM (highest concentration)): borderline decrease in impedance, which was statistically and physiologically significant only at the 24 h time point; Free Cmax [2]: 3.9 µM |
